Reference: US12202808B2, “Substituted antivirals for treating coronavirus infection” (Erasmus University Medical Center Rotterdam, priority 2021, dated 2025)
Like-named read-outs stand apart in the source and are kept apart here.

Columns and labels:
SARS-CoV-2 [1] = format: cell-based; settings: bronchioalveolar organoid-derived cultures, 10 μM, MOI 0.1, 2-72 h p.i.
SARS-CoV-2 [2] = format: cell-based; settings: bronchiolar organoid-derived cultures, MOI 0.1, 2-72 h p.i., most pronounced at 72 h p.i.
[3] = tested on: Bronchiolar organoid-derived cultures; format: cell-based, human

CO[C@H]1CN(C)C(=O)c2cc(NC(=O)NC(C)C)ccc2OC[C@H](C)N(Cc2ccc(-c3ccccn3)cc2)C[C@@H]1C [Bafcilin1]
inhibition of SARS-CoV-2 replication (SARS-CoV-2 [1]): inhibited SARS-CoV-2 replication
inhibition of SARS-CoV-2 replication as compared to the DMSO control (SARS-CoV-2 [2]; 1 μM): inhibited SARS-CoV-2 replication
inhibition of SARS-CoV-2 replication as compared to the DMSO control (SARS-CoV-2 [2]; 10 μM): inhibited SARS-CoV-2 replication
GSEA (Enrichr, COVID-19 Related Gene Sets) of treatment affected genes ([3]; 1 μM, 10 μM and common between both treatments): significant enrichment of genes upregulated upon SARS-CoV-2 infection
number of genes affected (differentially expressed) as compared to DMSO ([3]; 1 μM, 24 h treatment): 653 genes
Enrichr analysis of genes downregulated by treatment ([3]; 10 μM): enriched for genes upregulated upon SARS-CoV-2 or SARS-CoV-1 infection
Enrichr analysis of genes upregulated by treatment ([3]; 10 μM): enriched for genes downregulated upon SARS-CoV-2 or MERS-CoV infection
number of genes differentially expressed in the same direction in both concentration groups ([3]; common to 1 μM and 10 μM, 24 h treatment): 437 genes
